The text below walks through data of ChEMBL document CHEMBL5620378, “Structure-based discovery of novel cruzain inhibitors with distinct trypanocidal activity profiles” (Eur J Med Chem, 2023).

pIC50, pKi: −log10 of the molar value. Calls of active or inactive are those of the source. The calls are words filed in the database; no cut-off is given here.

Series [1] has as its target Cruzipain (Trypanosoma cruzi) (UniProt P25779). Briefly: Inhibition of C-terminal truncated Trypanosoma cruzi Tulahuen Cruzain using Z-FR-AMC as substrate at 100 uM measured for 5 mins by fluorescence based analysis.
Series [2] has the same target. Briefly: Inhibition of C-terminal truncated Trypanosoma cruzi Tulahuen Cruzain using Z-FR-AMC as substrate at 100 uM preincubated with enzyme for 10 mins and measured for 5 mins by fluorescence based analysis. To be noted: time 15.0 min.
Series [3] deals with T1, Cruzipain (Trypanosoma cruzi, UniProt P25779). Briefly: Inhibition of C-terminal truncated Trypanosoma cruzi Tulahuen Cruzain using Z-FR-AMC as substrate measured for 5 mins by fluorescence based analysis.
T1 sequence (P25779 whole entry, the tested form may be a part): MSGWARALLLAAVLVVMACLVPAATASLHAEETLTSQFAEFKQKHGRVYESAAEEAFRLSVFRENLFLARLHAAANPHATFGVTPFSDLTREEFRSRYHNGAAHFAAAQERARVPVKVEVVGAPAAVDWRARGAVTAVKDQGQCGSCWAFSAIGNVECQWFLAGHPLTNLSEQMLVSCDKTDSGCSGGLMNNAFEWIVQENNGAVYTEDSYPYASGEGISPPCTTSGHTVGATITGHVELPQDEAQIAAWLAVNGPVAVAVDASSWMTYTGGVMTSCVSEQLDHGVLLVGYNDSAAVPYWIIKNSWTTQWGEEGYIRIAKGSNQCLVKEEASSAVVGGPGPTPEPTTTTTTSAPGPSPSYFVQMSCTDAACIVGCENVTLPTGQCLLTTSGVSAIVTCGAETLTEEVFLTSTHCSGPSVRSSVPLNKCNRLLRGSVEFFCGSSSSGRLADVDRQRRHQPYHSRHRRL
The target in series [4] is Cruzipain (Trypanosoma cruzi) (UniProt P25779). Nature of the series: Competitive inhibition of C-terminal truncated Trypanosoma cruzi Tulahuen Cruzain assessed as increase in Km(app) using Z-FR-AMC as substrate by Michaelis-menten based analysis.
Cruzipain (Trypanosoma cruzi), sequence (P25779 123-467 limits assumed): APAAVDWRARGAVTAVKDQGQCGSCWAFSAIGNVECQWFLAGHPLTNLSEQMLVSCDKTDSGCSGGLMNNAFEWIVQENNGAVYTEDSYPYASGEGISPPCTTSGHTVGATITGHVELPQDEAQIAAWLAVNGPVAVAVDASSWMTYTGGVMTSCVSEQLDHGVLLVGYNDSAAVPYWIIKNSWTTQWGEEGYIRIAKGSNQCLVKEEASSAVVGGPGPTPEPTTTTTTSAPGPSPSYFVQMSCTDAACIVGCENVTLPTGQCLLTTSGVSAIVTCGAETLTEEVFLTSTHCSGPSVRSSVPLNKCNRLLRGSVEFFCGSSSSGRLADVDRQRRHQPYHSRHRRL
In series [5] the target is T1, Cruzipain. Nature of the series: Competitive inhibition of C-terminal truncated Trypanosoma cruzi Tulahuen Cruzain using Z-FR-AMC as substrate by Michaelis-menten based analysis.
Series [6] concerns the target Cruzipain (Trypanosoma cruzi) (UniProt P25779). Nature of the series: Competitive inhibition of C-terminal truncated Trypanosoma cruzi Tulahuen Cruzain assessed as constant Vmax using Z-FR-AMC as substrate by Lineweaver-Burk plot analysis.
Series [7] has the same target. Briefly: Ratio of IC50 for inhibition of C-terminal truncated Trypanosoma cruzi Tulahuen Cruzain in presence of different concentrations of Triton to IC50 for inhibition of C-terminal truncated Trypanosoma cruzi Tulahuen Cruzain.
Series [8] shares this target. Nature of the series: Ratio of IC50 for inhibition of C-terminal truncated Trypanosoma cruzi Tulahuen Cruzain in presence of 0% Triton and BSA to IC50 for inhibition of C-terminal truncated Trypanosoma cruzi Tulahuen Cruzain.
The next series deals with Cathepsin L (Homo sapiens, UniProt P07711). Briefly: Inhibition of human recombinant Cathepsin L (18 to 333 residues) assessed as residual activity using Z-FR-AMC as substrate at 100 uM measured for 5 mins by fluorescence based analysis. To be noted: recombinant human Cathepsin L (residues 18 to 333), probe Z-FR-AMC, read-out: Activity.
Cathepsin L, sequence (P07711 whole entry, the tested form may be a part): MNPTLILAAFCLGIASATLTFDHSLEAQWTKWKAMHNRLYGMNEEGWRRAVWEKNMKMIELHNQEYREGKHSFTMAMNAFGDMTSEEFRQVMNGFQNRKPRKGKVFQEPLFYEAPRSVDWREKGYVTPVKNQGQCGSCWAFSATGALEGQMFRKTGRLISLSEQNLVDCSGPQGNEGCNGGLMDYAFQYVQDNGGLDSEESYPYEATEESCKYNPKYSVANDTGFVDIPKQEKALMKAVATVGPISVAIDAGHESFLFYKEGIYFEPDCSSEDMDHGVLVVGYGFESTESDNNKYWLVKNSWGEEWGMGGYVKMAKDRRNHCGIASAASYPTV
The test system of series [9] is Trypanosoma cruzi. Nature of the series: Trypanocidal activity against Trypanosoma cruzi Y infected in C57BL/6 mouse Peritoneal macrophages assessed as reduction in trypomastigotes release at 6.25 uM measured on day 5 post-infection. To be noted: Peritoneal macrophage, 120 h, time 5 day. The class given is functional.
For series [10], the system named is Trypanosoma cruzi. Briefly: Trypanocidal activity against Trypanosoma cruzi Y infected in C57BL/6 mouse Peritoneal macrophages assessed as reduction in trypomastigotes release at 100 uM measured on day 5 post-infection. The class given is functional. To be noted: Peritoneal macrophage, 120 h, time 5 day.
For series [11], the system named is Peritoneal macrophage. Briefly: Cytotoxicity against C57BL/6 mouse Peritoneal macrophages assessed as cell damage at 0.19 to 400 uM measured after 24 hrs by LDH assay. Format: toxicity, cell-based. To be noted: dose 0.19-400 µM.
For series [12], the system named is Peritoneal macrophage. Briefly: Cytotoxicity against C57BL/6 mouse Peritoneal macrophages infected with Trypanosoma cruzi Y assessed as cell damage at 0.19 to 400 uM measured after 24 hrs by LDH assay. Format: toxicity, cell-based. To be noted: dose 0.19-400 µM.
The subject of series [13] is Peritoneal macrophage. Nature of the series: Effect on NO release in C57BL/6 mouse Peritoneal macrophages infected with Trypanosoma cruzi Y measured at 11 days post-infection by Griess reagent based assay. The class given is functional, cell-based. To be noted: time 11.0 day.
The subject of series [14] is Trypanosoma cruzi. Nature of the series: Trypanocidal activity against trypomastigote form of Trypanosoma cruzi Y assessed as reduction in parasite load at 6.25 uM incubated for 1 hr. Format: functional.
Series [15] deals with Trypanosoma cruzi. Nature of the series: Trypanocidal activity against epimastigotes form of Trypanosoma cruzi Y assessed as parasite viability by MTT assay. Format: functional, organism-based.
In series [16] the test system is Trypanosoma cruzi. Nature of the series: Trypanocidal activity against epimastigotes form of Trypanosoma cruzi Y assessed as decrease in parasite growth at 200 uM pretreated for 1 hr followed by drug wash-out and measured after 72 hrs by optical microscopic analysis. The class given is functional.
Series [17] has as its system Trypanosoma cruzi. Briefly: Trypanocidal activity against epimastigotes form of Trypanosoma cruzi Y assessed as decrease in parasite growth at 25 uM measured after 72 hrs by optical microscopic analysis. Format: functional.
The subject of series [18] is Trypanosoma cruzi. Nature of the series: Trypanocidal activity against trypomastigote form of Trypanosoma cruzi Y infected in C57BL/6 mouse Peritoneal macrophages assessed as reduction in intracellular parasite infection at 0.19 to 400 uM preincubated with parasite for 1 hr followed by infection and measured at 3 to 11 days post-infection. To be noted: Peritoneal macrophage, dose 0.19-400 µM, time 3-11 day. Format: functional, organism-based.

The subject of series [19] is Trypanosoma cruzi. Nature of the series: Trypanocidal activity against epimastigotes form of Trypanosoma cruzi Y assessed as decrease in parasite growth at 400 uM measured after 72 hrs by optical microscopic analysis. Format: functional.

Turning to `Cc1ccc(CNC(=O)C2Cc3ccc(F)cc3C(=O)O2)o1` (configuration not stated), in [1], the inhibition is 13%.
On the same count and under the same terms, the same measure for `Cc1ccc(CNC(=O)[C@@H]2Cc3ccccc3CN2)o1`: 8%; for `Cc1ccc(CNC(=O)[C@H]2Cc3ccccc3CN2)o1`: 4%; for `O=C(NCc1ccccn1)C1Cc2ccccc2CN1` (configuration not stated): 7%.
On the same count and under the same terms, the same measure for `O=C(NCc1ccco1)[C@@H]1Cc2ccccc2CO1`: 25%.
For `O=C(NCc1ccco1)C1Cc2ccccc2CN1` (racemic), the inhibition in series [2] and in series [1] was 100% in each case. This compound also had a pIC50 at Cruzipain [3] of 5.52. For the same compound, the inhibition result in series [4] and in series [6] was “Active” in each case. The compound also showed a negative logarithm of the Ki (pKi) at Cruzipain [5] of 5.34. Besides, the Ratio IC50 in series [7] amounted to 3; in series [8] it was 7. In addition, the activity at 5 min, 100 µM at Cathepsin L amounted to 51%. In addition, the inhibition at 6.25 µM came to 18% in the series with Trypanosoma cruzi [9] and 13% in the series on Trypanosoma cruzi [14]. In addition, the inhibition at 100 µM with Trypanosoma cruzi [10] worked out at 25%. In addition, the Activity result in the series with Peritoneal macrophage [11] and in the series on Peritoneal macrophage [12] was “Non-Toxic” each time. The Activity result in the series with Peritoneal macrophage [13] and with Trypanosoma cruzi [15] was “inactive” throughout. Moreover, in the series on Trypanosoma cruzi [16], the inhibition at 200 µM worked out at 20%. Further, in the series on Trypanosoma cruzi [17], the inhibition at 25 µM was found to be 43%.
The compound `O=C(NCc1ccco1)C1Cc2c(F)cccc2CN1` (racemic) had a pIC50 on Cruzipain [3] of 4.59. The inhibition result in series [4] and in series [6] was “Active” throughout. On Cruzipain [5], this compound showed a pKi of 4.57. The inhibition in series [1] amounted to 100%. Also, the Ratio IC50 in [7] was determined as 6; in series [8], 10. The activity at 5 min, 100 µM at Cathepsin L was 65%. Moreover, the inhibition at 6.25 µM with Trypanosoma cruzi [9] came out at 51%; in the series with Trypanosoma cruzi [14] it was 39%. Further, the inhibition at 100 µM with Trypanosoma cruzi [10] was 74%. In addition, the Activity result in the series on Peritoneal macrophage [11] and in the series with Peritoneal macrophage [12] was “Non-Toxic” in each case. The Activity result in the series on Peritoneal macrophage [13] and with Trypanosoma cruzi [15] was “inactive” in each case. In the series with Trypanosoma cruzi [18], the Activity result is “Active”. For the same compound, the inhibition at 200 µM in the series with Trypanosoma cruzi [16] is 12%. For the same compound, the inhibition at 25 µM in the series with Trypanosoma cruzi [17] was 6%. The inhibition at 400 µM with Trypanosoma cruzi [19] stood at 23%.
